Structures are written as SMILES.

For 14 molecules, Activity results are on record in ChEMBL document CHEMBL3046941, “Synthesis of novel isoxazolines via 1,3-dipolar cycloaddition and evaluation of anti-stress activity” (2011).

What all share (type): functional
The subject of test [1] is Rattus norvegicus. As to the kind of experiment: Antistress activity in Rattus norvegicus Sprague-Dawley (rat) assessed as inhibition of acute stress-induced increase in corticosterone level at 40 mg/kg, po (reference value: 465.7 +/- 15.77 ng/ml).
Test [2] has as its system Rattus norvegicus. Briefly: Antistress activity in Rattus norvegicus Sprague-Dawley (rat) assessed as inhibition of acute stress-induced plasma creatinine kinase activity at 40 mg/kg, po (reference value: 1115 +/- 29.43 IU/dl).
Test [3] concerns Rattus norvegicus. As to the kind of experiment: Antistress activity in Rattus norvegicus Sprague-Dawley (rat) assessed as inhibition of acute stress-induced hyperglycemia measured as glucose level at 40 mg/kg, po (reference value: 134.7 +/- 4.68 mg/dl).
For test [4], the system named is Rattus norvegicus. As to the kind of experiment: Antistress activity in Rattus norvegicus Sprague-Dawley (rat) assessed as inhibition of acute stress-induced adrenal hypertrophy measured as adrenal gland weight per 100 g of body weight at 40 mg/kg, po (reference value: 10.20 +/- 0.69 mg).

With `COc1ccc(C2=NOC(Cc3ccc(OC(C)=O)c(OC)c3)C2)c(OC)c1` (stereo unspecified), the Activity amounted to 364.2 ng/mL in the test on Rattus norvegicus [1], 766.71 IU/dl in the test with Rattus norvegicus [2], 107.2 mg/dL with Rattus norvegicus [3] and 7.01 mg with Rattus norvegicus [4].

Take `COc1ccc(C2=NOC(Cc3ccc(OCc4ccccc4)c(OC)c3)C2)c(OC)c1` (stereo unspecified): the Activity was found to be 354.8 ng/mL in the test on Rattus norvegicus [1], 664.3 IU/dl in the test on Rattus norvegicus [2], 80.5 mg/dL in the test on Rattus norvegicus [3] and 8.01 mg in the test with Rattus norvegicus [4].

Take `CCOc1ccc(CC2CC(c3ccc(OC)cc3OC)=NO2)cc1OC` (stereo unspecified): the Activity stood at 275.5 ng/mL in the test with Rattus norvegicus [1], 729.7 IU/dl in the test on Rattus norvegicus [2], 93 mg/dL in the test on Rattus norvegicus [3] and 7.82 mg in the test on Rattus norvegicus [4].

In the case of `COc1cc(CC2CC(c3cccc4ccccc34)=NO2)ccc1O` (stereo unspecified), the Activity with Rattus norvegicus [1] was found to be 417.2 ng/mL; in the test on Rattus norvegicus [2], 998.5 IU/dl; with Rattus norvegicus [3] it was 86.24 mg/dL; with Rattus norvegicus [4], 9.86 mg.

Regarding `COc1ccc(C2=NOC(Cc3ccc(OCCN4CCCC4)c(OC)c3)C2)c(OC)c1` (stereo unspecified), the Activity was 429.8 ng/mL in the test with Rattus norvegicus [1], 934.7 IU/dl in the test with Rattus norvegicus [2], 127 mg/dL with Rattus norvegicus [3] and 9.82 mg in the test with Rattus norvegicus [4].

Regarding `COc1ccc(CC2CC(c3cccc4ccccc34)=NO2)cc1OC` (stereo unspecified), the Activity with Rattus norvegicus [1] came to 293.5 ng/mL; in the test with Rattus norvegicus [2], 590 IU/dl; in the test with Rattus norvegicus [3] it was 109.51 mg/dL; in the test with Rattus norvegicus [4], 7.54 mg.

Turning to `COc1ccc(C2=NOC(Cc3ccc(OC)c(OC)c3)C2)c(OC)c1` (stereo unspecified), the Activity with Rattus norvegicus [1] came to 446 ng/mL; with Rattus norvegicus [2], 1092 IU/dl; in the test on Rattus norvegicus [3], 122 mg/dL; with Rattus norvegicus [4] it was 9.63 mg.

Turning to `COc1ccc(C2=NOC(Cc3ccc(OCCN4CCCCC4)c(OC)c3)C2)c(OC)c1` (stereo unspecified), the Activity in the test on Rattus norvegicus [1] turned out to be 320 ng/mL; in the test with Rattus norvegicus [2], 733.8 IU/dl; in the test with Rattus norvegicus [3] it was 101.7 mg/dL; in the test with Rattus norvegicus [4], 7.6 mg.

Regarding `COc1cc(CC2CC(c3cccc4ccccc34)=NO2)ccc1OCCN1CCCCC1` (stereo unspecified), the Activity is 282.5 ng/mL in the test with Rattus norvegicus [1], 603.7 IU/dl with Rattus norvegicus [2], 78.17 mg/dL in the test with Rattus norvegicus [3] and 7.23 mg with Rattus norvegicus [4].

On to `COc1ccc(C2=NOC(Cc3ccc(O)c(OC)c3)C2)c(OC)c1` (stereo unspecified), for which the Activity came out at 432.2 ng/mL with Rattus norvegicus [1], 1004 IU/dl in the test on Rattus norvegicus [2], 112 mg/dL in the test with Rattus norvegicus [3] and 9.31 mg in the test on Rattus norvegicus [4].

Regarding `COc1cc(CC2CC(c3cccc4ccccc34)=NO2)ccc1OCc1ccccc1` (stereo unspecified), the Activity with Rattus norvegicus [1] came to 444.7 ng/mL; with Rattus norvegicus [2], 994.5 IU/dl; in the test on Rattus norvegicus [3], 116.3 mg/dL; in the test on Rattus norvegicus [4] it was 9.6 mg.

With `COc1cc(CC2CC(c3cccc4ccccc34)=NO2)ccc1OCCN1CCCC1` (stereo unspecified), the Activity in the test with Rattus norvegicus [1] came to 421 ng/mL; in the test on Rattus norvegicus [2], 1074 IU/dl; in the test on Rattus norvegicus [3], 125 mg/dL; in the test on Rattus norvegicus [4], 10.58 mg.

For `CCOc1ccc(CC2CC(c3cccc4ccccc34)=NO2)cc1OC` (stereo unspecified), the Activity was found to be 292.3 ng/mL with Rattus norvegicus [1], 625.7 IU/dl in the test on Rattus norvegicus [2], 72.83 mg/dL in the test with Rattus norvegicus [3] and 7.89 mg in the test on Rattus norvegicus [4].

For the molecule `COc1cc(CC2CC(c3cccc4ccccc34)=NO2)ccc1OC(C)=O` (stereo unspecified), the Activity is 311.8 ng/mL in the test with Rattus norvegicus [1], 673 IU/dl in the test on Rattus norvegicus [2], 74.67 mg/dL in the test with Rattus norvegicus [3] and 7.77 mg with Rattus norvegicus [4].
